Reference: patent US20130267547A1, “PRODRUGS UTILIZING A TRANSPORTER-DIRECTED UPTAKE MECHANISM” (VIRGINIA COMMONWEALTH UNIVERSITY, priority 2010, published 2013)

How the values were obtained:
[1] = Hydrolysis of LPV esters in vivo in rats
Method: (§1) NMR spectroscopy was performed on the compounds including GLPV (FIG. 14A). […] An LC-MS/MS assay was developed and validated to determine concentrations of the novel compounds in biological matrices and fluids, as shown in FIG. 14B.

[2] = test system: fresh human placental villous tissue; experiment: Incubation of DGLPV with fresh human placental villous tissue (HPLC of medium and tissue); type: in vitro ADME
Method: DGLPV was synthesized as described above. The amount of DGLPV in the media originally containing 100 uM DGLPV was measured using HPLC as described above, and again after a 30 minute incubation with fresh human placental villous tissue in the same media.
To confirm that the DGLPV was taken up by the tissue and hydrolyzed therein, HPLC was used to measure the amount of free LPV present in the tissue.

[3] = test system: plasma esterases; experiment: Stability in human plasma; type: in vitro ADME
Method: The stability of SLPV was determined by incubating SLPV (20 μM) in human plasma from one healthy adult at 37° C. for 18 hours.

[4] = test system: BeWo cells; experiment: Uptake of non-radiolabelled LPV esters in BeWo cells (LC-MS/MS); type: cell-based, human; settings: for Rank order of uptake: non-radiolabelled esters
Method: as §1

[5] = test system: BeWo cells; experiment: Uptake of 3H-lopinavir, 3H-succinyl-lopinavir and 3H-carnitine-succinyl-lopinavir by BeWo cells, with and without transport inhibitors; settings: for inhibition at 100 µM / inhibition at 250 µM: Homo sapiens, BeWo, read-out: Extent of Uptake Inhibition
Method: FIG. 10. […] BeWo cells (passage 38) were incubated with the compounds for 10 minutes at 37° C. or 4° C. in Dulbecco's phosphate buffered saline containing 0.05% bovine serum albumin. After incubation, the cells were washed with the cold buffer (lacking the compounds), and compounds were extracted from the cells into methanol followed by liquid scintillation analysis.
Specifically, bromosulfophthalein (BSP) is an inhibitor of several organic anion transporters (OATs; gene family SLC22A), as well as organic anion transporting polypeptides (OATPs; gene family SLCO). […] Finally, taurocholate is a classic substrate for bile salt transporters, including the sodium-dependent taurocholate transporter (NTCP; SLC10A1), the apical bile salt transporter (ASBT; SLC10A2), and certain OATPs.
The BeWo cell line is originally derived from a human choriocarcinoma. The BeWo cell line (Schwartz clone; passage 30) was a gift. BeWo cells in these studies is used between passages 30-70. BeWo cells are cultured in high glucose Dulbecco's modified Eagle's medium (DMEM) supplemented with 10% heat inactivated fetal bovine serum (FBS).

[6] = test system: human primary cytotrophoblast cells; experiment: Uptake of 3H-SLPV and 3H-LPV by primary cytotrophoblast cells; type: cell-based
Excerpt: We also isolated primary cytotrophoblast cells from one term (39 weeks gestation) placenta delivered by cesarean section. […] (FIG. 7).

[7] = test system: P-glycoprotein; settings: mice; cited from earlier work

Cc1cccc(C)c1OCC(=O)NC(Cc1ccccc1)[C@H](CC(Cc1ccccc1)NC(=O)[C@H](C(C)C)N1CCCNC1=O)OC(=O)COCC(=O)O (some centres unmarked) [DGLPV, Diglycolic-Lopinavir]
Hydrolysis in vivo, in words [1]: capable of being hydrolyzed in vivo | Amount of DGLPV in the medium after incubation with tissue ([2]; 100 uM DGLPV, 30 minute incubation): decrease in DGLPV in the medium | Hydrolysis in the tissue to release free lopinavir, in words ([2]; human placental villous tissue): can also be hydrolyzed in the tissue | Transport into human tissues, in words ([2]; human placental villous tissue): can also be transported into human tissues | half-life ([3]; human, plasma, preliminary data, read-out: Plasma hydrolysis half-life (converted)): ~2 h | Temperature dependence of uptake, in words [4]: temperature dependent | Rank order of uptake [4]: GLPV>SLPV>DGLPV

Cc1cccc(C)c1OCC(=O)N[C@@H](Cc1ccccc1)[C@@H](O)C[C@H](Cc1ccccc1)NC(=O)[C@H](C(C)C)N1CCCNC1=O [LPV, lopinavir, reference compound]
Extent of Uptake Inhibition ([5]; Cold (4° C.), BeWo cells): 10% | inhibition at 100 µM [5]: 9% | inhibition at 250 µM [5]: 7%

Cc1cccc(C)c1OCC(=O)NC(Cc1ccccc1)C(CC(Cc1ccccc1)NC(=O)C(C(C)C)N1CCCNC1=O)OC(=O)CCC(=O)O (centres unmarked) [SLPV, Succinyl-lopinavir]
Reduction of uptake in the presence of linoleic acid ([5]; 40 μM linoleic acid (LA), BeWo cells, p<0.05): 34%

Cc1cccc(C)c1OCC(=O)NC(Cc1ccccc1)[C@H](CC(Cc1ccccc1)NC(=O)[C@H](C(C)C)N1CCCNC1=O)OC(=O)CCC(=O)O (some centres unmarked) [SLPV, Succinyl-lopinavir]
Effect of ABC transporter inhibitor MK571 on uptake, in words [5]: slight increase in uptake | Effect of arachidonic acid on uptake, in words [5]: no effect | Temperature dependence of uptake, in words [5]: inhibited at reduced temperatures | Extent of Uptake Inhibition ([5]; Cold (4° C.), BeWo cells): 62% | inhibition at 100 µM [5]: -1% | inhibition at 250 µM [5]: 7% | Temperature dependence of uptake, in words ([5]; human, 10 minutes): significantly less than at 37 °C | Extent of Uptake Inhibition ([5]; linoleic acid (40 mM), BeWo cells): 40% | Extent of Uptake Inhibition ([5]; valproic acid (1 mM), BeWo cells): 5% | Stability in human plasma, in words ([3]; 20 μM, human plasma from one healthy adult, 37° C., 18 hours): completely stable to plasma esterases | Temperature dependence of uptake, in words [4]: temperature dependent | Rank order of uptake [4]: GLPV>SLPV>DGLPV | Temperature dependence of uptake, in words ([6]; 4° C. vs 37° C., cytotrophoblasts): temperature-dependent | Uptake relative to uptake of LPV ([6]; human placental cytotrophoblasts, 37° C., after 24 hrs in culture): 10 fold

CC(=O)O[C@H]1C(=O)[C@@]2(C)[C@H]([C@H](OC(=O)c3ccccc3)[C@]3(O)C[C@H](OC(=O)[C@H](O)[C@@H](NC(=O)c4ccccc4)c4ccccc4)C(C)=C1C3(C)C)[C@]1(OC(C)=O)CO[C@@H]1C[C@@H]2O [paclitaxel]
Fold more drug entering P-glycoprotein deficient Abcb1a−/−/1b−/− fetuses than wild type fetuses [7]: 16 fold
